Columns and labels:
[1] = target: T1, hRIPK1 (aa 1-375) fusion protein (Homo sapiens, UniProt Q13546); assay: ADP-Glo kinase assay: catalytic activity of RIPK1 (autophosphorylation, conversion of ATP to ADP); format: biochemical
T1 construct: hRIPK1 (aa 1-375) fusion protein
T1 sequence (Q13546 1-375): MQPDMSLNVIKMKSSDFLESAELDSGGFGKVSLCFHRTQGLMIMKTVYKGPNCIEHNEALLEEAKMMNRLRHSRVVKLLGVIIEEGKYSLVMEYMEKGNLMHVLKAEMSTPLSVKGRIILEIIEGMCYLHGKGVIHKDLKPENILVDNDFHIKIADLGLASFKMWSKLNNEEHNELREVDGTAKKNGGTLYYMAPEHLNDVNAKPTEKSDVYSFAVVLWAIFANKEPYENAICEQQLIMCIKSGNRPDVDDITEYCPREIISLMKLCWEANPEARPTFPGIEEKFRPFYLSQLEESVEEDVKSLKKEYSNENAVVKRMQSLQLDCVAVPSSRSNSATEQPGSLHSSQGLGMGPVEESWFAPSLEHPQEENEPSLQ
Method in brief: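 The readout was ADP-Glo luminescence after a 240 min rt autophosphorylation reaction with 50 μM ATP, following 30 min preincubation of 3.6 μg/ml hRIPK1 (aa 1-375) fusion with compound at 33300-1.69 nM final in 1% DMSO. Values came from Levenberg-Marquardt nonlinear fits.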

U937 cells = assay: Cellular assay in U937 cells: activity of RIPK1 inhibitors on TNFα/zVAD.fmk-induced cell death (necroptosis), CellTiter 96 AQueous (MTS) readout; format: cell-based; settings: Homo sapiens, U-937
Method in brief: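 Necroptosis was measured by viable-cell MTS reduction (4 h, absorbance 490 nm) after overnight (18–24 h) 37° C culture. Cell suspensions of U937 cells carried TNFα (100 ng/ml) plus zVAD.fmk (50 μM) before compound was added. A 10-point curve (10 μM–0.26 nM or 1 μM–0.07 nM) was run in duplicate, normalised to the control lacking TNFα/zVAD.fmk.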

Cc1ccc([C@@H]2CCON2C(=O)[C@H]2CC[C@H](Cc3cc(C)ncc3F)CC2)cn1 [compound 386, trans-[4-[(5-fluoro-2-methylpyridin-4-yl)methyl]cyclohexyl]-[(3S)-3-(6-methylpyridin-3-yl)-1,2-oxazolidin-2-yl]methanone]
IC50 [1]: 25 nM
IC50 (U937 cells): 13 nM

Cc1nn(C[C@H]2CC[C@H](C(=O)N3OCC[C@H]3c3cc(F)cc(F)c3)CC2)c2cc(F)c(C#N)cc12 [compound 68, trans-1-((4-((S)-3-(3,5-difluorophenyl)isoxazolidine-2-carbonyl)cyclohexyl)methyl)-6-fluoro-3-methyl-1H-indazole-5-carbonitrile]
IC50 [1]: 25 nM
IC50 (U937 cells): 2 nM

O=C([C@H]1CC[C@H](Cn2ccc3ncc(Cl)cc32)CC1)N1OCC[C@H]1c1cc(F)cc(F)c1 [compound 21, trans-(4-((6-chloro-1H-pyrrolo[3,2-b]pyridin-1-yl)methyl)cyclohexyl)((S)-3-(3,5-difluorophenyl)isoxazolidin-2-yl)methanone]
IC50 [1]: 25 nM
IC50 (U937 cells): 5 nM

Cc1cc2nnc(C)n2cc1C[C@H]1CC[C@H](C(=O)N2OCC[C@H]2c2cccc(F)c2)CC1 [compound 317, trans-[4-[(3,7-dimethyl-[1,2,4]triazolo[4,3-a]pyridin-6-yl)methyl]cyclohexyl]-[(3S)-3-(3-fluorophenyl)isoxazolidin-2-yl]methanone]
IC50 [1]: 7 nM
IC50 (U937 cells): 2 nM

Cc1nc2c(F)cc(C[C@H]3CC[C@H](C(=O)N4OCC[C@H]4c4cncc(F)c4)CC3)cn2n1 [compound 380]
IC50 [1]: 70 nM
IC50 (U937 cells): 129 nM

O=C1NCc2ccc(C[C@H]3CC[C@H](C(=O)N4OCC[C@H]4c4cnccn4)CC3)cc21 [compound 145, trans-6-[[4-[(3S)-3-pyrazin-2-ylisoxazolidine-2-carbonyl]cyclohexyl]methyl]isoindolin-1-one]
IC50 [1]: 29 nM
IC50 (U937 cells): 16 nM

Cc1ncc(F)cc1C[C@H]1CC[C@H](C(=O)N2OCC[C@H]2c2cncc(C#N)c2)CC1 [compound 197, trans-5-[(3S)-2-[4-[(5-fluoro-2-methyl-3-pyridyl)methyl]cyclohexanecarbonyl]isoxazolidin-3-yl]pyridine-3-carbonitrile]
IC50 [1]: 24 nM
IC50 (U937 cells): 4 nM

N#Cc1cc(F)cc([C@@H]2CCON2C(=O)[C@H]2CC[C@H](Cn3cc4cc(F)ccc4n3)CC2)c1 [compound 56, trans-3-fluoro-5-((S)-2-(4-((5-fluoro-2H-indazol-2-yl)methyl)cyclohexane-1-carbonyl)isoxazolidin-3-yl)benzonitrile]
IC50 [1]: 42 nM
IC50 (U937 cells): 109 nM

Cc1cnc([C@@H]2CCON2C(=O)[C@H]2CC[C@H](Cc3cc(C)ncc3Cl)CC2)cn1 [compound 385, trans-[4-[(5-chloro-2-methylpyridin-4-yl)methyl]cyclohexyl]-[(3S)-3-(5-methylpyrazin-2-yl)-1,2-oxazolidin-2-yl]methanone]
IC50 [1]: 24 nM
IC50 (U937 cells): 3 nM

Cc1cc(C)n(C[C@H]2CC[C@H](C(=O)N3OCC[C@H]3c3cc(F)cc(F)c3)CC2)n1 [compound 118, trans-((S)-3-(3,5-difluorophenyl)isoxazolidin-2-yl)(4-((3,5-dimethyl-1H-pyrazol-1-yl)methyl)cyclohexyl)methanone]
IC50 [1]: 23 nM
IC50 (U937 cells): 30 nM

Cc1nccn1-c1cc(F)cc(C[C@H]2CC[C@H](C(=O)N3OCC[C@H]3c3cc(F)cc(C#N)c3)CC2)c1 [compound 216, trans-3-fluoro-5-[(3S)-2-[4-[[3-fluoro-5-(2-methylimidazol-1-yl)phenyl]methyl]cyclohexanecarbonyl]isoxazolidin-3-yl]benzonitrile]
IC50 [1]: 15 nM
IC50 (U937 cells): 10 nM

N#Cc1cncc([C@@H]2CCON2C(=O)[C@H]2CC[C@H](Cn3cnc4ccc(F)cc43)CC2)c1 [compound 106, trans-5-((S)-2-(4-((6-fluoro-1H-benzo[d]imidazol-1-yl)methyl)cyclohexane-1-carbonyl)isoxazolidin-3-yl)nicotinonitrile]
IC50 [1]: 46 nM
IC50 (U937 cells): 54 nM

N#Cc1cc(F)c2cnn(C[C@H]3CC[C@H](C(=O)N4OCC[C@H]4c4cc(F)cc(F)c4)CC3)c2c1 [compound 33, trans-1-((4-((S)-3-(3,5-difluorophenyl)isoxazolidine-2-carbonyl)cyclohexyl)methyl)-4-fluoro-1H-indazole-6-carbonitrile]
IC50 [1]: 19 nM
IC50 (U937 cells): 2 nM

COc1cncc([C@@H]2CCON2C(=O)[C@H]2CC[C@H](Cn3ncc4ccc(C(N)=O)cc43)CC2)n1 [Compound 201, trans-1-[[4-[(3S)-3-(6-methoxypyrazin-2-yl)isoxazolidine-2-carbonyl]cyclohexyl]methyl]indazole-6-carboxamide]
IC50 [1]: 62 nM
IC50 (U937 cells): 190 nM

Cc1nnc2ccc(C[C@H]3CC[C@H](C(=O)N4OCC[C@H]4c4cc(F)cc(C#N)c4)CC3)cn12 [compound 224, trans-3-fluoro-5-[(3S)-2-[4-[(3-methyl-[1,2,4]triazolo[4,3-a]pyridin-6-yl)methyl]cyclohexanecarbonyl]isoxazolidin-3-yl]benzonitrile]
IC50 [1]: 35 nM
IC50 (U937 cells): 17 nM

N#Cc1cc(F)cc([C@@H]2CCON2C(=O)[C@H]2CC[C@H](Cn3ccc4ncc(C#N)cc43)CC2)c1 [compound 2, trans-1-((4-((S)-3-(3-cyano-5-fluorophenyl)isoxazolidine-2-carbonyl)cyclohexyl)methyl)-1H-pyrrolo[3,2-b]pyridine-6-carbonitrile]
IC50 [1]: 33 nM
IC50 (U937 cells): 9 nM

N#Cc1cc2ncn(C[C@H]3CC[C@H](C(=O)N4OCC[C@H]4c4cnccn4)CC3)c2cc1F [compound 97, trans-6-fluoro-1-((4-((S)-3-(pyrazin-2-yl)isoxazolidine-2-carbonyl)cyclohexyl)methyl)-1H-benzo[d]imidazole-5-carbonitrile]
IC50 [1]: 78 nM
IC50 (U937 cells): 214 nM

COc1cc(C[C@H]2CC[C@H](C(=O)N3OCC[C@H]3c3ccc(C)nc3)CC2)cn2nc(C)nc12 [compound 368, trans-[4-(8-Methoxy-2-methyl-[1,2,4]triazolo[1,5-a]pyridin-6-ylmethyl)-cyclohexyl]-[(S)-3-(6-methyl-pyridin-3-yl)-isoxazolidin-2-yl]-methanone]
IC50 [1]: 95 nM
IC50 (U937 cells): 123 nM

N#Cc1cc2ncn(C[C@H]3CC[C@H](C(=O)N4OCC[C@H]4c4cc(F)cc(F)c4)CC3)c2cc1F [compound 10, trans-1-((4-((S)-3-(3,5-difluorophenyl)isoxazolidine-2-carbonyl)cyclohexyl)methyl)-6-fluoro-1H-benzo[d]imidazole-5-carbonitrile]
IC50 [1]: 43 nM
IC50 (U937 cells): 8 nM

Cc1cncc([C@@H]2CCON2C(=O)[C@H]2CC[C@H](Cc3ccc(F)c(C(N)=O)c3)CC2)n1 [compound 299, trans-2-fluoro-5-[[4-[(3S)-3-(6-methylpyrazin-2-yl)isoxazolidine-2-carbonyl]cyclohexyl]methyl]benzamide]
IC50 [1]: 14 nM
IC50 (U937 cells): 19 nM

N#Cc1ccc2c(c1)ncn2C[C@H]1CC[C@H](C(=O)N2OCC[C@H]2c2cncc(F)c2)CC1 [compound 6, trans-1-((4-((S)-3-(5-fluoropyridin-3-yl)isoxazolidine-2-carbonyl)cyclohexyl)methyl)-1H-benzo[d]imidazole-5-carbonitrile]
IC50 [1]: 154 nM
IC50 (U937 cells): 377 nM

O=C([C@H]1CC[C@H](Cn2cnc3ccc(F)cc32)CC1)N1OCC[C@H]1c1cc(F)cc(F)c1 [compound 113, trans-((S)-3-(3,5-difluorophenyl)isoxazolidin-2-yl)(4-((6-fluoro-1H-benzo[d]imidazol-1-yl)methyl)cyclohexyl)methanone]
IC50 [1]: 24 nM
IC50 (U937 cells): 3 nM

Cn1cc(C[C@H]2CC[C@H](C(=O)N3OCC[C@H]3c3cnccn3)CC2)cn1 [compound 151, trans-[4-[(1-methylpyrazol-4-yl)methyl]cyclohexyl]-[(3S)-3-pyrazin-2-ylisoxazolidin-2-yl]methanone]
IC50 [1]: 46 nM
IC50 (U937 cells): 214 nM

Cc1nc2c(Cl)cc(C[C@H]3CC[C@H](C(=O)N4OCC[C@H]4c4cnc(C)c(F)c4)CC3)cn2n1 [compound 381, [4-[(8-chloro-2-methyl-[1,2,4]triazolo[1,5-a]pyridin-6-yl)methyl]cyclohexyl]-[(3S)-3-(5-fluoro-6-methylpyridin-3-yl)-1,2-oxazolidin-2-yl]methanone]
IC50 [1]: 31 nM
IC50 (U937 cells): 8 nM

N#Cc1cc(F)c2ncn(C[C@H]3CC[C@H](C(=O)N4OCC[C@H]4c4cc(F)cc(F)c4)CC3)c2c1 [compound 37, trans-1-((4-((S)-3-(3,5-difluorophenyl)isoxazolidine-2-carbonyl)cyclohexyl)methyl)-4-fluoro-1H-benzo[d]imidazole-6-carbonitrile]
IC50 [1]: 17 nM
IC50 (U937 cells): 5 nM

COc1cncc([C@@H]2CCON2C(=O)[C@H]2CC[C@H](Cn3ccc4ncc(C#N)cc43)CC2)n1 [compound 185, trans-1-[[4-[(3S)-3-(6-methoxypyrazin-2-yl)isoxazolidine-2-carbonyl]cyclohexyl]methyl]pyrrolo[3,2-b]pyridine-6-carbonitrile]
IC50 [1]: 32 nM
IC50 (U937 cells): 34 nM

Source: patent US20260158009A1 (GENZYME CORPORATION, priority 2023, published 2026)
